Drawing on patent US9556170B2, “Substituted-1H-benzo[d]imidazole series compounds as lysine-specific demethylase 1 (LSD1) inhibitors” (University of Utah, priority 2013, dated 2017), this text covers IC50 for two compounds.

The structures appear in SMILES notation.

The assay concerns the target LSD1 (Homo sapiens (Human), UniProt O60341). Description: LSD1 histone demethylase assay (LSD1 Inhibitor Screening Assay Kit, Cayman Chemical). Conditions: H2O2/resorufin fluorescence readout, dimethyl K4 H3 peptide substrate. In kind it is biochemical. How it is done: Recombinant (expressed in baculovirus infected BTI insect cells) monoamine oxidase A and monoamine oxidase B (Catalog No. M7316 and M7441, respectively) were purchased from Sigma-Aldrich Co. LLC. (St. Louis, Mo.). MAO-Glo™ Assay Kit was purchased from Promega Corporation (Madison, Wis.). ATPlite™ Luminescence Assay System (e.g. Catalog No. V1401) was purchased from PerkinElmer Inc. (Waltham, Mass.).
IC50 values are determined using GraphPad Prism 5 software. The data were entered as an X-Y plot into the software as percent inhibition for each concentration of the drug. The concentration values of the drug were log transformed and the nonlinear regression was carried out using the “sigmoidal dose-response (variable slope)” option within the GraphPad software to model the data and calculate IC50 values.

Broadly, the IC50 is the concentration that inhibits the measured activity by half. On to `CN1CCN(S(=O)(=O)c2ccc3[nH]c(Nc4cc(Cl)ccc4O)nc3c2)CC1` [Compound 2, 4-chloro-2-((5-((4-methylpiperazin-1-yl)sulfonyl)-1H-benzo[d]imidazol-2-yl)amino)phenol], for which half-maximal inhibition (IC50) required 0.273 µM.

With `O=S(=O)(c1ccc2[nH]c(Nc3cc(Cl)ccc3O)nc2c1)N1CCNCC1` [Compound 3], the 50% inhibitory concentration (IC50) was 0.081 µM. This IC50 is about 3.4-fold lower than that of the compound before.
